Twelve compounds from ChEMBL document CHEMBL1143442, “Inhibitors of the tyrosine kinase EphB4. Part 2: structure-based discovery and optimisation of 3,5-bis substituted anilinopyrimidines” (Bioorg Med Chem Lett, 2008) can be followed below.

The target in experiment [1] is T1, Ephrin type-B receptor 4 (Homo sapiens, UniProt P54760).
T1 sequence (P54760 whole entry): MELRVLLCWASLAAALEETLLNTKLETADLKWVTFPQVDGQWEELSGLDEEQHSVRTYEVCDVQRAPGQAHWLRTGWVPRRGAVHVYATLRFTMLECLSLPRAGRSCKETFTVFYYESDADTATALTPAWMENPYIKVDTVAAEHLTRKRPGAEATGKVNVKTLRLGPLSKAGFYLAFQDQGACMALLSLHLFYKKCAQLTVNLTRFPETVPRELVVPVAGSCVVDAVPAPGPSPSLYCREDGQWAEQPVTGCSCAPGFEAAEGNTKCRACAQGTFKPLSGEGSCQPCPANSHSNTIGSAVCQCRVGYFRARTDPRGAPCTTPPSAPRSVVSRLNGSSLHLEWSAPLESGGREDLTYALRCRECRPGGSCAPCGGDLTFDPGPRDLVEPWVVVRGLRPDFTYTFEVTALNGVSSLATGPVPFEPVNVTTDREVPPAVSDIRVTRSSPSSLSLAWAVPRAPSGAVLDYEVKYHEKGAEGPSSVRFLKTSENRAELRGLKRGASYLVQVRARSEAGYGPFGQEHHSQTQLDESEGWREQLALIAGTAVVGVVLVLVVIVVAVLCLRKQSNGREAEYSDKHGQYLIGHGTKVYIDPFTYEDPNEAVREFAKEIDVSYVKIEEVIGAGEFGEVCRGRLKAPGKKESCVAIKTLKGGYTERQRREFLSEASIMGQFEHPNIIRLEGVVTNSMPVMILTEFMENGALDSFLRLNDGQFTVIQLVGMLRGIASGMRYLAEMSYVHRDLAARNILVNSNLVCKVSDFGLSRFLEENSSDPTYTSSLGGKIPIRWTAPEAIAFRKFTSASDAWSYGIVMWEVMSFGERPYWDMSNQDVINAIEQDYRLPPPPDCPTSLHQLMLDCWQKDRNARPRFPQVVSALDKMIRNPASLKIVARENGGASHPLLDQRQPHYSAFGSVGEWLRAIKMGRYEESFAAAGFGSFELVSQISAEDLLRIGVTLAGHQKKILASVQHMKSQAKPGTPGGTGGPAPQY
The experiment can be described thus: Inhibition of Myc-His-tagged EphB4 expressed in CHOK1 cells assessed as phosphorylation by ELISA. It is filed as cell-based, CHO-K1. For orientation: In an ELISA, binding on a coated surface is turned into a signal by an enzyme label.

Experiment [2] concerns the target T1, Ephrin type-B receptor 4. The experiment can be described thus: Inhibition of EphB4.

What is called IC50 is the concentration that gives 50% inhibition. Take `NS(=O)(=O)c1cccc(Nc2nccc(Nc3c(Cl)ccc4c3OCO4)n2)c1`: the IC50 at Ephrin type-B receptor 4 [1] was determined as 0.172 µM.
Regarding `NC(=O)c1cc(Nc2nccc(Nc3c(Cl)ccc4c3OCO4)n2)cc(C(N)=O)c1`, the IC50 on Ephrin type-B receptor 4 [2] is 0.077 µM; at Ephrin type-B receptor 4 [1], more than 30 µM.
Taken in the same sequence, the figures for `CS(=O)(=O)Nc1cc(Nc2nccc(Nc3c(Cl)ccc4c3OCO4)n2)cc(S(N)(=O)=O)c1` were 0.001 µM and 14.1 µM.
Taken in the same sequence, the figures for `CS(=O)(=O)Nc1cc(Nc2nccc(Nc3c(Cl)ccc4c3OCO4)n2)cc(NS(C)(=O)=O)c1` were 0.015 µM and 7.17 µM.
Taken in the same sequence, the figures for `CS(=O)(=O)c1cc(Nc2nccc(Nc3c(Cl)ccc4c3OCO4)n2)cc(S(C)(=O)=O)c1` were 0.114 µM and 0.209 µM.
Consider `CS(=O)(=O)c1cc(Nc2nccc(Nc3c(Cl)ccc4c3OCO4)n2)cc(C(N)=O)c1`, for which the IC50 against Ephrin type-B receptor 4 [2] came to 0.023 µM; at Ephrin type-B receptor 4 [1], 22.2 µM.
As to `CS(=O)(=O)c1cc(Nc2nccc(Nc3c(Cl)ccc4c3OCO4)n2)cc(N2CCOCC2)c1`, the figures for the IC50 against Ephrin type-B receptor 4 [2] and on Ephrin type-B receptor 4 [1] were 0.002 µM and 0.032 µM, respectively.
Turning to `CS(=O)(=O)Nc1cc(Nc2nccc(Nc3c(Cl)ccc4c3OCO4)n2)cc(C(N)=O)c1`, the results for the IC50 on Ephrin type-B receptor 4 [2] and at Ephrin type-B receptor 4 [1] were 0.37 µM and more than 30 µM, respectively.
With `NC(=O)c1cccc(Nc2nccc(Nc3c(Cl)ccc4c3OCO4)n2)c1`, the 50% inhibitory concentration (IC50) at Ephrin type-B receptor 4 [1] was 0.9 µM.
`NC(=O)c1cc(Nc2nccc(Nc3c(Cl)ccc4c3OCO4)n2)cc(N2CCOCC2)c1`: the IC50 at Ephrin type-B receptor 4 [2] turned out to be 0.013 µM; at Ephrin type-B receptor 4 [1], 0.887 µM.
`CS(=O)(=O)Nc1cc(Nc2nccc(Nc3c(Cl)ccc4c3OCO4)n2)cc(S(C)(=O)=O)c1`: the results for the IC50 against Ephrin type-B receptor 4 [2] and on Ephrin type-B receptor 4 [1] were 0.012 µM and 2.05 µM, respectively.
For the compound `CS(=O)(=O)Nc1cc(Nc2nccc(Nc3c(Cl)ccc4c3OCO4)n2)cc(N2CCOCC2)c1`, the results for the IC50 on Ephrin type-B receptor 4 [2] and on Ephrin type-B receptor 4 [1] were 0.002 µM and 0.17 µM, respectively.
